# Like-named read-outs stand apart in the source and are kept apart here.
# What was measured:
# [1] = tested on: Lactobacillus plantarum PN0512; experiment: Growth of L. plantarum PN0512 in the presence of butanols at different temperatures (OD600 for six hours); type: cell-based; design: key to Growth in the presence of 1-butanol / Growth in the presence of isobutanol / Growth in the presence of 2-butanol: “+” = growth observed as an increase in OD600.; “−” = no growth observed, i.e. no change in OD600
# [2] = tested on: Saccharomyces cerevisiae BY4741; settings: for % Growth Inhibition: six hours
# Protocol: Tolerance levels were determined for yeast strain Saccharomyces cerevisiae BY4741 (described in Example 21) at 25° C. and 30° C. as follows. The strain was cultured in YPD medium. Overnight cultures in the absence of any test compound were started in 25 mL of YPD medium in 150 mL flasks with incubation at 30° C. or at 25° C. in shaking water baths. The next morning, each overnight culture was diluted into a 500 mL flask-containing 300 mL of fresh medium to an initial OD600 of about 0.1. The flasks were incubated in shaking water baths at 30° C. or 25° C., using the same temperature as used for each overnight culture. […] The ΔOD600 was calculated by subtracting the initial OD600 from the final OD600 at 6 hours. The percent growth inhibition relative to the control culture was calculated as follows: % Growth Inhibition=100−[100(Sample ΔOD600/Control ΔOD600)].
# [3] = target: 3-hydroxybutyryl-CoA dehydrogenase (Clostridium acetobutylicum, UniProt P52041); experiment: Hydroxybutyryl-CoA dehydrogenase activity (NADH oxidation, 340 nm); settings: induced E. coli BL21-AI culture, one typical assay
# acetoacetyl-CoA thiolase = experiment: Acetoacetyl-CoA thiolase activity in cell free extracts (absorbance 303 nm); settings: cell free extract of arabinose-induced E. coli BL21-AI culture, one typical assay
# crotonase = target: T1, crotonase (Clostridium acetobutylicum, UniProt P52046); experiment: Crotonase activity assay (Stern); type: biochemical; settings: induced E. coli BL21-AI culture, one typical assay
# T1 construct: made in house; host or cells: E. coli BL21-AI (pDEST14crt); S. cerevisiae BY4741 (pNY11) and BY4743 (pNY103)
# Protocol: Crotonase activity was assayed as described by Stern (Methods Enzymol. 1, 559-566, (1954)).
# (§1) Enzyme assays were performed as described above.
# [4] = tested on: trans-2-enoyl-CoA reductase; experiment: Trans-2-enoyl-CoA reductase activity assay (Hoffmeister et al.); type: biochemical; settings: induced E. coli BL21-AI culture carrying pRARE, one typical assay
# Protocol: Trans-2-enoyl-CoA reductase activity was assayed as described by Hoffmeister et al. (J. Biol. Chem. 280, 4329-4338 (2005)).
# Trans-2-enoyl-CoA reductase activity was assayed as described by Hoffmeister et al., J. Biol. Chem. 280:4329 (2005).
# as §1
# [5] = tested on: butyraldehyde dehydrogenase; experiment: Acylating aldehyde dehydrogenase activity (NADH formation, 340 nm); settings: induced E. coli BL21-AI culture, one typical assay
# butanol dehydrogenase = experiment: Butanol dehydrogenase activity (NADH oxidation, 340 nm); type: biochemical, Clostridium acetobutylicum; settings: induced E. coli BL21-AI culture, one typical assay
# Sequence of 3-hydroxybutyryl-CoA dehydrogenase (P52041 whole entry): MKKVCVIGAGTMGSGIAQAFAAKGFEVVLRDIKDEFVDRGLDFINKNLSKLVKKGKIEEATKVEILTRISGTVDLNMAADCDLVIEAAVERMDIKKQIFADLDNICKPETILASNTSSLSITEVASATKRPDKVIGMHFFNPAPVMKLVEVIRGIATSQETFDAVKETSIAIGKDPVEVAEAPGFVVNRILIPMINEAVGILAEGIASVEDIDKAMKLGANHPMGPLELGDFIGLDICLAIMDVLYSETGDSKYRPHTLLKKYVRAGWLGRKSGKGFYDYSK
molecule,measurement,setting,value
1-butanol,Growth in the presence of 1-butanol,"[1]; 1.0 % w/v, 37° C.",+
same,Growth in the presence of 1-butanol,"[1]; 1.2 % w/v, 37° C.",+
same,Growth in the presence of 1-butanol,"[1]; 1.4 % w/v, 37° C.",+
same,Growth in the presence of 1-butanol,"[1]; 1.5 % w/v, 25° C.",+
same,Growth in the presence of 1-butanol,"[1]; 1.5 % w/v, 30° C.",+
same,Growth in the presence of 1-butanol,"[1]; 1.5 % w/v, 37° C.",+
same,Growth in the presence of 1-butanol,"[1]; 1.6 % w/v, 37° C.",+
same,Growth in the presence of 1-butanol,"[1]; 1.8 % w/v, 37° C.",+
same,Growth in the presence of 1-butanol,"[1]; 2.0 % w/v, 25° C.",+
same,Growth in the presence of 1-butanol,"[1]; 2.0 % w/v, 30° C.",+
same,Growth in the presence of 1-butanol,"[1]; 2.0 % w/v, 37° C.",+
same,Growth in the presence of 1-butanol,"[1]; 2.1 % w/v, 37° C.",+
same,Growth in the presence of 1-butanol,"[1]; 2.2 % w/v, 37° C.",+
same,Growth in the presence of 1-butanol,"[1]; 2.3 % w/v, 37° C.",+
same,Growth in the presence of 1-butanol,"[1]; 2.4 % w/v, 25° C.",+
same,Growth in the presence of 1-butanol,"[1]; 2.4 % w/v, 30° C.",+
same,Growth in the presence of 1-butanol,"[1]; 2.4 % w/v, 37° C.",−
same,Growth in the presence of 1-butanol,"[1]; 2.7 % w/v, 30° C.",+
same,Growth in the presence of 1-butanol,"[1]; 2.7 % w/v, 37° C.",−
same,Growth in the presence of 1-butanol,"[1]; 2.9 % w/v, 25° C.",+
same,Growth in the presence of 1-butanol,"[1]; 2.9 % w/v, 30° C.",−
same,Growth in the presence of 1-butanol,"[1]; 2.9 % w/v, 37° C.",−
same,Growth in the presence of 1-butanol,"[1]; 3.1 % w/v, 25° C.",+
same,Growth in the presence of 1-butanol,"[1]; 3.1 % w/v, 30° C.",−
same,Growth in the presence of 1-butanol,"[1]; 3.1 % w/v, 37° C.",−
same,Growth in the presence of 1-butanol,"[1]; 3.2 % w/v, 25° C.",−
same,Growth in the presence of 1-butanol,"[1]; 3.2 % w/v, 30° C.",−
same,Growth in the presence of 1-butanol,"[1]; 3.3 % w/v, 25° C.",−
same,Growth in the presence of 1-butanol,"[1]; 3.4 % w/v, 25° C.",−
same,Growth in the presence of 1-butanol,"[1]; 3.4 % w/v, 30° C.",−
same,concentration in which growth was observed,[1]; 25° C.,3.1%
same,concentration in which growth was not observed,[1]; 30° C.,2.9%
same,concentration in which growth was observed,[1]; 30° C.,2.7%
same,concentration in which growth was not observed,[1]; 37° C.,2.4%
same,concentration in which growth was observed,[1]; 37° C.,2.3%
same,Growth in the presence of 1-butanol,"[1]; […] w/v, 37° C.",−
same,growth inhibition of strain BY4741 at 25° C. compared with 30° C.,[2]; 1% 1-butanol,less inhibited
same,% Growth Inhibition,"[2]; 1% 1-butanol, 25° C.",43%
same,% Growth Inhibition,"[2]; 1% 1-butanol, 30° C.",64%
same,% Growth Inhibition,"[2]; 2% 1-butanol, 25° C.",No growth
same,% Growth Inhibition,"[2]; 2% 1-butanol, 30° C.",No growth
BHBD protein: 3-hydroxybutyryl-CoA dehydrogenase (SEQ ID NO:6) from C. acetobutylicum ATCC 824 expressed in E. coli,specific activity (hydroxybutyryl-CoA dehydrogenase),[3],57.4 µmol/mg/min
ThIA protein: acetoacetyl-CoA thiolase (SEQ ID NO:2) from C. acetobutylicum ATCC 824 expressed in E. coli,specific activity (acetoacetyl-CoA thiolase),acetoacetyl-CoA thiolase,16.0 µmol/mg/min
ThIB protein: acetoacetyl-CoA thiolase (SEQ ID NO:4) from C. acetobutylicum ATCC 824 expressed in E. coli,specific activity (acetoacetyl-CoA thiolase),acetoacetyl-CoA thiolase,14.9 µmol/mg/min
"crotonase protein: crotonase (SEQ ID NO:8) from C. acetobutylicum ATCC 824 expressed in E. coli (protein, listed as Clostridium acetobutylicum) MELNNVILEKEGKVAVVTINRPKALNALNSDTLKEMDYVIGEIENDSEVLAVILTGAGEKSFVAGADISEMKEMNTIEGRKFGILGNKVFRRLELLEKPVIAAVNGFALGGGCEIAMSCDIRIASSNARFGQPEVGLGITPGFGGTQRLSRLVGMGMAKQLIFTAQNIKADEALRIGLVNKVVEPSELMNTAKEIANKIVSNAPVAVKLSKQAINRGMQCDIDTALAFESEAFGECFSTEDQKDAMTAFIEKRKIEGFKNR",specific activity (crotonase),crotonase,444 µmol/mg/min
"TER CAC0462 protein: putative trans-2-enoyl-CoA reductase (SEQ ID NO:10) from C. acetobutylicum ATCC 824 expressed in E. coli (protein, listed as Clostridium acetobutylicum) MIVKAKFVKGFIRDVHPYGCRREVLNQIDYCKKAIGFRGPKKVLIVGASSGFGLATRISVAFGGPEAHTIGVSYETGATDRRIGTAGWYNNIFFKEFAKKKGLVAKNFIEDAFSNETKDKVIKYIKDEFGKIDLFVYSLAAPRRKDYKTGNVYTSRIKTILGDFEGPTIDVERDEITLKKVSSASIEEIEETRKVMGGEDWQEWCEELLYEDCFSDKATTIAYSYIGSPRTYKIYREGTIGIAKKDLEDKAKLINEKLNRVIGGRAFVSVNKALVTKASAYIPTFPLYAAILYKVMKEKNIHENCIMQIERMFSEKIYSNEKIQFDDKGRLRMDDLELRKDVQDEVDRIWSNITPENFKELSDYKGYKKEFMNLNGFDLDGVDYSKDLDIELLRKLEP",specific activity (trans-2-enoyl-CoA reductase),[4],0.694 µmol/mg/min
"Ald protein: butyraldehyde dehydrogenase (SEQ ID NO:12) from C. beijerinckii ATCC 35702 expressed in E. coli (protein, listed as Clostridium beijerinckii) MNKDTLIPTTKDLKVKTNGENINLKNYKDNSSCFGVFENVENAISSAVHAQKILSLHYTKEQREKIITEIRKAALQNKEVLATMILEETHMGRYEDKILKHELVAKYTPGTEDLTTTAWSGDNGLTVVEMSPYGVIGAITPSTNPTETVICNSIGMIAAGNAVVFNGHPCAKKCVAFAVEMINKAIISCGGPENLVTTIKNPTMESLDAIIKHPSIKLLCGTGGPGMVKTLLNSGKKAIGAGAGNPPVIVDDTADIEKAGRSIIEGCSFDNNLPCIAEKEVFVFENVADDLISNMLKNNAVIINEDQVSKLIDLVLQKNNETQEYFINKKWVGKDAKLFLDEIDVESPSNVKCIICEVNANHPFVMTELMMPILPIVRVKDIDEAIKYAKIAEQNRKHSAYIYSKNIDNLNRFEREIDTTIFVKNAKSFAGVGYEAEGFTTFTIAGSTGEGITSARNFTRQRRCVLAG",specific activity (acylating aldehyde dehydrogenase),[5],0.106 µmol/mg/min
"BdhB protein: butanol dehydrogenase (SEQ ID NO:14) from C. acetobutylicum ATCC 824 expressed in E. coli (protein, listed as Clostridium acetobutylicum) MVDFEYSIPTRIFFGKDKINVLGRELKKYGSKVLIVYGGGSIKRNGIYDKAVSILEKNSIKFYELAGVEPNPRVTTVEKGVKICRENGVEVVLAIGGGSAIDCAKVIAAACEYDGNPWDIVLDGSKIKRVLPIASILTIAATGSEMDTWAVINNMDTNEKLIAAHPDMAPKFSILDPTYTYTVPTNQTAAGTADIMSHIFEVYFSNTKTAYLQDRMAEALLRTCIKYGGIALEKPDDYEARANLMWASSLAINGLLTYGKDTNWSVHLMEHELSAYYDITHGVGLAILTPNWMEYILNNDTVYKFVEYGVNVWGIDKEKNHYDIAHQAIQKTRDYFVNVLGLPSRLRDVGIEEEKLDIMAKESVKLTGGTIGNLRPVNASEVLQIFKKSV",specific activity (butanol dehydrogenase),butanol dehydrogenase,0.169 µmol/mg/min
"BdhA protein: butanol dehydrogenase (SEQ ID NO:16) from C. acetobutylicum 824 expressed in E. coli (protein, listed as Clostridium acetobutylicum) MLSFDYSIPTKVFFGKGKIDVIGEEIKKYGSRVLIVYGGGSIKRNGIYDRATAILKENNIAFYELSGVEPNPRITTVKKGIEICRENNVDLVLAIGGGSAIDCSKVIAAGVYYDGDTWDMVKDPSKITKVLPIASILTLSATGSEMDQIAVISNMETNEKLGVGHDDMRPKFSVLDPTYTFTVPKNQTAAGTADIMSHTFESYFSGVEGAYVQDGIAEAILRTCIKYGKIAMEKTDDYEARANLMWASSLAINGLLSLGKDRKWSCHPMEHELSAYYDITHGVGLAILTPNWMEYILNDDTLHKFVSYGINVWGIDKNKDNYEIAREAIKNTREYFNSLGIPSKLREVGIGKDKLELMAKQAVRNSGGTIGSLRPINAEDVLEIFKKSY",specific activity (butanol dehydrogenase),butanol dehydrogenase,0.102 µmol/mg/min

# From patent US20130217060A1 (Butamax(TM) Advanced Biofuels LLC, priority 2007, published 2013)
